Measurements taken from patent US9623077B2, “Use of peptide for alleviating pain” (Academia Sinica, priority 2015, dated 2017).
Where no end group is shown, it is not given here.

Experiments:
CCI rats [1] = type: in vivo, rat; conditions: i.t. administration, from peak effects of % MPE
Protocol: Implantation of i.t. catheters in rats was performed.
Thermal hyperalgesia was examined using an IITC analgesiometer (IITC Inc., Woodland Hills, Calif., USA). […] Paw withdrawal latency (PWL) in seconds was measured with a cutoff time of 30 seconds. PWL was recorded at 30, 60, 90, 120, 150, and 180 minutes after PCD-1 or gabapentin injection. PWL (s) was transformed to a percentage of the maximum possible effect (% MPE) using the following formula: % MPE=(post-drug latency−baseline)/(cutoff−baseline)×100%, where the post-drug latency was the response measured at 0, 30, 60, 90, 120, 150, or 180 minutes after injection of PCD-1, gabapentin, or vehicle. The baseline was the response measured immediately prior to i.t. injection, and the cutoff time was 30 seconds.

rats = rats treated with PCD-1
RAW264.7 cells = system: RAW264.7 cells; design: dose or concentration left out as unconfirmed; conditions: PCD-1 for 24 h
Protocol: (A) RAW264.7 cells are treated with the indicated doses of PCD-1 for 24 h, and cell viability is then measured by Alamar blue assay to assess cytotoxicity.
In order to investigate regulation of iNOS and COX-2 by PCD-1, mouse macrophage and immune cells were treated with non-cytotoxic doses of PCD-1, and the effects on protein expression were examined.

CCI rats [2] = system: CCI rats
Protocol: The rat model of chronic constriction injury (CCI) was performed by following the previous reports or research. Implantation of i.t. catheters in rats was performed. The i.t. catheters (PE5 tubes: 9-cm long, 0.008-inch inner diameter, 0.014-inch outer diameter; Spectranetics, Colorado Springs, Colo., USA) were inserted via the atlanto-occipital membrane into the i.t. space at the level of the lumbar enlargement of the spinal cord, and externalized and fixed to the cranial aspect of the head. Five days after i.t. catheterization, CCI or mononeuropathy was induced by following a previous report. The 5-mm-long nerve segment of right sciatic nerve at the mid-thigh level was isolated from the surrounding tissues. Four ligatures (4-0 chromic gut) were loosely tied around the sciatic nerve with 1-mm intervals, and the wound was closed with sutures.
The narrow beam used in the present invention was a wooden beam 80 cm in length and 2.5 cm in width, suspended 100 cm from the ground by wooden supports at either end. Foam padding (1 m wide and approximately 12 cm thick) was placed beneath the beam to prevent injury to the rat in case of a fall. The cutoff time to cross the beam was 15 seconds for each rat. Rats were pre-trained before the test.

For `NCC1(CC(=O)O)CCCCC1` [gabapentin, reference compound], which “median effective dose (ED50) for anti-thermal hyperalgesia” value (CCI rats [1]) is on record?
Its value is 2.3 ± 1.5 µg.

With “FFHHIFRGIVHVGKTIHRLVTG [PCD-1, Piscidin-1] [listing 1 of 2 here]” as the compound, how does the “alterations of external behavior” value (rats) read?
Its value is “nor did it result in any obvious alterations”.

What about the “Proliferation of RAW264.7 cells (cell viability, Alamar blue)” value (RAW264.7 cells) of the same compound?
Its value is “unaffected”.

What about the “latency to initiate crossing and total time to cross the beam” value (CCI rats [2]; CCI rats+PCD-1 (20 μg) vs CCI rats+vehicle, 0 to 480 minutes) of the same compound?
The value was “No significant differences”.

And the locomotor function (CCI rats [2]; rats, i.t. 20 μg)?
The locomotor function was “did not affect”.

With “FFHHIFRGIVHVGKTIHRLVTG [PCD-1, Piscidin-1] [listing 2 of 2 here]” as the compound, how does the “median effective dose (ED50) for anti-thermal hyperalgesia” value (CCI rats [1]) read?
Its value is 9.5 ± 3.2 µg.
